Test results reported in PMC4498294, “Tetrahydroisoquinolines affect the whole-cell phenotype of Mycobacterium tuberculosis by inhibiting the ATP-dependent MurE ligase” (Journal of Antimicrobial Chemotherapy, 2015).
Converted amounts (≈) assume the structure as drawn. Where two headings read alike, the source gives them in different places. Marks after values point to notes of the source that are not given here.

What was measured:
[1] = test system: M. bovis BCG Pasteur; test: microbe, parasite or virus in culture; format: cell-based; details: for MIC: Mycobacterium tuberculosis variant bovis BCG, BCG; for MIC M. bovis BCG: SPOTi, 2 weeks at 37°C
[2] = test system: M. tuberculosis H37Rv; test: SPOTi growth inhibition assay, M. tuberculosis H37Rv; format: cell-based; details: for MIC: Mycobacterium tuberculosis, H37RV
[3] = test system: murine macrophage cell line RAW264.7; test: Eukaryotic cell toxicity assay, RAW264.7; format: cell-based; details: Mus musculus, read-out: GIC50 RAW264.7
[4] = target: MurE (Rv2158c) protein of M. tuberculosis H37Rv (Mycobacterium tuberculosis, UniProt P9WJL3); test: Mtb-MurE HPLC inhibition assay; format: biochemical; details: for IC50: HPLC assay, 37°C 30 min
[5] = test system: M. aurum; test: SPOTi assay, M. aurum; format: cell-based, Mycobacterium aurum; details: for MIC: Mycolicibacterium aurum
[6] = test system: M. smegmatis mc^2155; test: SPOTi assay, M. smegmatis; format: cell-based, Mycobacterium smegmatis; details: for MIC: Mycolicibacterium smegmatis, MC^2155
[7] = test system: R. equi RHA1; test: SPOTi assay, R. equi RHA1; format: cell-based, Rhodococcus equi; details: 30°C 48 h; for MIC: Rhodococcus (subgen. Prescottella) equi, RHA1, LB
[8] = test system: E. coli K12; test: SPOTi assay, E. coli; format: cell-based, Escherichia coli; details: 37°C overnight; for MIC: Escherichia coli, K12, LB
[9] = test system: P. putida; test: SPOTi assay, P. putida; format: cell-based, Pseudomonas putida; details: LB, 37°C overnight; for MIC: Pseudomonas putida
[10] = test system: M. bovis BCG; format: cell-based; details: M. bovis BCG treated at 4 × MIC for 48 h (D-cycloserine 100 mg/L, 39 160 mg/L); 100 cells
[11] = test system: murine macrophage cell line RAW264.7; set-up: method as in Gupta and Bhakta.[27]; details: ref Gupta and Bhakta.[27]; cited from earlier work
[12] = target: T1, CYP 1A2 (Homo sapiens, UniProt P05177); test: CYP450 inhibition assay, CYP 1A2; format: in vitro ADME; set-up: dose or concentration left out as unconfirmed; details: CYP baculosomes with recombinant human CYP1A2, probe fluorogenic substrate (not named); human recombinant enzymes; read-out: Mean % inhibtion CYP 1A2
T1 construct: purchased; host or cells: baculosomes (insect-cell microsomes; own knowledge)
T1 sequence (P05177 1-516): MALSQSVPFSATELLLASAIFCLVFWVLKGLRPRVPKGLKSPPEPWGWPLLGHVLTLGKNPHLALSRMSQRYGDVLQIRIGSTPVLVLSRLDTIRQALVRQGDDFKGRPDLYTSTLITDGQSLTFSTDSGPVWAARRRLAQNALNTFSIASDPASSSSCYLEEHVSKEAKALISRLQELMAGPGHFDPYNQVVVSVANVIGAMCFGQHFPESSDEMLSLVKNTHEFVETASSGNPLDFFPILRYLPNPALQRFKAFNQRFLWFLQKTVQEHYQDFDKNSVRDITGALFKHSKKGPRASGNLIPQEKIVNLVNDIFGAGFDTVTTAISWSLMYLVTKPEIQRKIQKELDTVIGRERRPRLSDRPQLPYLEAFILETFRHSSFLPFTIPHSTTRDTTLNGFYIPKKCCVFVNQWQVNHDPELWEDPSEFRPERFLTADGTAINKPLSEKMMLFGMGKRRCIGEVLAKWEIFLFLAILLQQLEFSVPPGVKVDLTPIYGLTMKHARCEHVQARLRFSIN
Procedure: (§1) The compounds originally dissolved in DMSO were added to PBS to give a resulting concentration of […]. CYP baculosomes containing cDNA for a single human P450 isozyme, the fluorogenic substrate and the NADPH were added to the test solution. The reaction was incubated at 37°C for at least 1 h. Fluorogenic substrates metabolized by CYP enzymes result in highly fluorescent products in aqueous solution. The inhibition of CYP prevents this metabolism, which corresponds to a decrease in the fluorescence signal. The fluorescence was measured on a plate reader.

[13] = target: T2, CYP 2C9 (Homo sapiens, UniProt P11712); test: CYP450 inhibition assay, CYP 2C9; format: in vitro ADME; set-up: dose or concentration left out as unconfirmed; details: CYP baculosomes with recombinant human CYP2C9, probe fluorogenic substrate (not named); human recombinant enzymes; read-out: Mean % inhibtion CYP 2C9
T2 construct: purchased; host or cells: baculosomes (insect-cell microsomes; own knowledge)
Procedure: as §1

[14] = target: T3, CYP 2C19 (Homo sapiens, UniProt P33261); test: CYP450 inhibition assay, CYP 2C19; format: in vitro ADME; set-up: dose or concentration left out as unconfirmed; details: CYP baculosomes with recombinant human CYP2C19, probe fluorogenic substrate (not named); human recombinant enzymes; read-out: Mean % inhibtion CYP 2C19
T3 construct: purchased; host or cells: baculosomes (insect-cell microsomes; own knowledge)
Procedure: as §1

[15] = target: T4, CYP 2D6 (Homo sapiens, UniProt P10635); test: CYP450 inhibition assay, CYP 2D6; format: in vitro ADME; set-up: dose or concentration left out as unconfirmed; details: CYP baculosomes with recombinant human CYP2D6, probe fluorogenic substrate (not named); human recombinant enzymes; read-out: Mean % inhibtion CYP 2D6
T4 construct: purchased; host or cells: baculosomes (insect-cell microsomes; own knowledge)
Procedure: as §1

[16] = target: T5, CYP 3A4 (Homo sapiens, UniProt P08684); test: CYP450 inhibition assay, CYP 3A4; format: in vitro ADME; set-up: dose or concentration left out as unconfirmed; details: CYP baculosomes with recombinant human CYP3A4, probe fluorogenic substrate (not named); human recombinant enzymes; read-out: Mean % inhibtion CYP 3A4
T5 construct: purchased; host or cells: baculosomes (insect-cell microsomes; own knowledge)
Procedure: as §1

[17] = 336 h, read-out: MIC M. bovis BCG, SPOTi, 2 weeks at 37°C
[18] = read-out: MIC M. bovis BCG, SPOTi, value in square brackets
[19] = 336 h, read-out: MIC M. tuberculosis H37Rv, SPOTi, 2 weeks at 37°C
[20] = SPOTi, value in square brackets, read-out: MIC M. tuberculosis H37Rv
[21] = RAW264.7, value in square brackets
[22] = murine macrophage cell line RAW264.7
[23] = 336 h, SPOTi, 2 weeks at 37°C, read-out: MIC M. tuberculosis H37Rv

Sequence of MurE (Rv2158c) protein of M. tuberculosis H37Rv (P9WJL3 whole entry, looked up): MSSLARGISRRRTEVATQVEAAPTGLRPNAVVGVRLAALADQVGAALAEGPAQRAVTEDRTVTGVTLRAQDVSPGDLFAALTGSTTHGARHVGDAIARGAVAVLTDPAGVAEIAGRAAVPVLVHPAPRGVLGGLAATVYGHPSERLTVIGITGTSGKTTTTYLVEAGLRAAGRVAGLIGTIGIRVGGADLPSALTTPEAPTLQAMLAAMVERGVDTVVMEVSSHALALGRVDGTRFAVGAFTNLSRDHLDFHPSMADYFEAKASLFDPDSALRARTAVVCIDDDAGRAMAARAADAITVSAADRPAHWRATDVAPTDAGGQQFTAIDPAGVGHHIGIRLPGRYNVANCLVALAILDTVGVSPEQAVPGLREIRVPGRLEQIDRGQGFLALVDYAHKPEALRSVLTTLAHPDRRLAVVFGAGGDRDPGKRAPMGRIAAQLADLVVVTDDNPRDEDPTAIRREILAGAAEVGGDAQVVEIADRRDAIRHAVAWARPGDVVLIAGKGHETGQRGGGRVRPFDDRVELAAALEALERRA
T3 sequence (P33261 whole entry): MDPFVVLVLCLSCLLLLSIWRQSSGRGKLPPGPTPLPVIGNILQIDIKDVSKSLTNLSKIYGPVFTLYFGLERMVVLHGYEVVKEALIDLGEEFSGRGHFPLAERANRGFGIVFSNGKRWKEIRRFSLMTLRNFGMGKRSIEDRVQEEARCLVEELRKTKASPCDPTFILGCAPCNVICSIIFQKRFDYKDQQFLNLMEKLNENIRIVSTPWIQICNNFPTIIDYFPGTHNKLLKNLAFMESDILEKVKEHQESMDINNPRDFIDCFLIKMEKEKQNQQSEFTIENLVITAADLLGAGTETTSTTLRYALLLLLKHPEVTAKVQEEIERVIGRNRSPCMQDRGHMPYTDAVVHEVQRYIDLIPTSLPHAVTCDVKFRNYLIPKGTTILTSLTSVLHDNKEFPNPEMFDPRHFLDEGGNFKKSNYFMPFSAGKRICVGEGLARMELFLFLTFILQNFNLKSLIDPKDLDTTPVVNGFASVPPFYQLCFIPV
T2 sequence (P11712 whole entry): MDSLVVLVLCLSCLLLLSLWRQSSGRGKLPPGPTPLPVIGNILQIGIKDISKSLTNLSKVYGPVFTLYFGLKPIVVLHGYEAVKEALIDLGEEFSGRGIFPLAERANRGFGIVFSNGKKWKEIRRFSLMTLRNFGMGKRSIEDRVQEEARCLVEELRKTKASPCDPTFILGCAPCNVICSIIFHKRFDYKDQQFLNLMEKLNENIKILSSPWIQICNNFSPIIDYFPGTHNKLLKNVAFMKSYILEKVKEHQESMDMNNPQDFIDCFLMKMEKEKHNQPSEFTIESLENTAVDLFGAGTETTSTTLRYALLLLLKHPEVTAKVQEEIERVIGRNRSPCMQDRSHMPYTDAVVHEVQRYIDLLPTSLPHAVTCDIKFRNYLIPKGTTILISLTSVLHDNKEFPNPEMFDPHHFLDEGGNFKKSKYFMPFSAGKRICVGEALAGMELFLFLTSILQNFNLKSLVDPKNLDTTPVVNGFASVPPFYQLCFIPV
T5 sequence (P08684 whole entry): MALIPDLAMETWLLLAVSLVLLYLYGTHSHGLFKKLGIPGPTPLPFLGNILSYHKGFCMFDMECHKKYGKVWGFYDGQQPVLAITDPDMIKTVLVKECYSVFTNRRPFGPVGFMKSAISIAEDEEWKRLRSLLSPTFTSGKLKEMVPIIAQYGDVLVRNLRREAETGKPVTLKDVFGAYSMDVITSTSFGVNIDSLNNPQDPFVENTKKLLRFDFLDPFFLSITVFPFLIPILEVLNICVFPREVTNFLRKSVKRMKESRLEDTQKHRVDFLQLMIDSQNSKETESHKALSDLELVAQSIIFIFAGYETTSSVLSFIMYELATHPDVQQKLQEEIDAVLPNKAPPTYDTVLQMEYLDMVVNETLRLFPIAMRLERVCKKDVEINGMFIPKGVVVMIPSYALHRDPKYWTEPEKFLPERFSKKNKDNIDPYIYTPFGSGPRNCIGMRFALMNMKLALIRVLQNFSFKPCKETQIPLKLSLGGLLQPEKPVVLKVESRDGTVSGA
T4 sequence (P10635 whole entry): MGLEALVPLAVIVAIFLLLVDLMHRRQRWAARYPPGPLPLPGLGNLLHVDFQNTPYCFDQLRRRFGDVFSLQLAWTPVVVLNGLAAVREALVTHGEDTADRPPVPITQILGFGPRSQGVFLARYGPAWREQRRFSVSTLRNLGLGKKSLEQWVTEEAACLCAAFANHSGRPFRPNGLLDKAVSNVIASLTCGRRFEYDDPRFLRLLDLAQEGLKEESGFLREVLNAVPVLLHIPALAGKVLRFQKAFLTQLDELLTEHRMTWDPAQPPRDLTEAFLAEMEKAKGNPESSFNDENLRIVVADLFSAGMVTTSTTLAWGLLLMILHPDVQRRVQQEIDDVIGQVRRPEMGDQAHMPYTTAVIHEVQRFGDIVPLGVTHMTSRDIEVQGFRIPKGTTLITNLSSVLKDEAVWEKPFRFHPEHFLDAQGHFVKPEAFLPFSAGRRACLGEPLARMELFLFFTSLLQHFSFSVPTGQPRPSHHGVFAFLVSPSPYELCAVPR

SMILES	MIC [1, 17] [µg/mL]	MIC [1, 18] [µM]	MIC [2, 20] [µM]	IC50 [3, 21] [µM]	IC50 [3, 22] [µg/mL]	IC50 [4] [µM]	MIC [2, 23] [µg/mL]	other results
CCCCCCCCCC1NCCc2cc(O)c(O)cc21 (stereo not shown) [Compound 24]	> 60	275	206	5.5	1.6	186	–	MIC M. bovis BCG [1]: 80 µg/mL (≈ 275 µM); MIC [2, 19]: 80 µg/mL; MIC M. tuberculosis H37Rv ([2]; SPOTi, 2 weeks at 37°C): 60 µg/mL (≈ 206 µM); MIC [5]: 100 µg/mL (≈ 343 µM); MIC [6]: 100 µg/mL (≈ 343 µM); MIC [7]: > 100 µg/mL; MIC [8]: > 100 µg/mL; MIC [9]: > 100 µg/mL
Oc1ccc2c(c1)CCNC2Cc1ccc2c(c1)OCO2 (stereo not shown) [Compound 27]	100	353	–	529	150	> 1000	–	–
COc1cccc2c1C(Cc1ccc3c(c1)OCO3)NCC2 (stereo not shown) [Compound 40]	> 50	> 168	> 336	740	220	300	> 100	–
COc1ccc(Cl)c2c1C(Cc1ccc3c(c1)OCO3)NCC2 (stereo not shown) [Compound 36]	40	121	181	124	41	–	60	MIC [5]: 60 µg/mL (≈ 181 µM); MIC [6]: 60 µg/mL (≈ 181 µM); MIC [7]: > 100 µg/mL; MIC [8]: > 100 µg/mL; MIC [9]: > 100 µg/mL
COc1ccc(Cl)c2c1C(Cc1cc3c(cc1Br)OCO3)NCC2 (stereo not shown) [Compound 39]	40	97	97	178	73	–	40	cell length [10]: 4.7 ± 1.4 μm
CO[C@H]1/C=C/O[C@@]2(C)Oc3c(C)c(O)c4c(O)c(c(/C=N/N5CCN(C)CC5)c(O)c4c3C2=O)NC(=O)/C(C)=C\C=C\[C@H](C)[C@H](O)[C@@H](C)[C@@H](O)[C@@H](C)[C@H](OC(C)=O)[C@@H]1C [Rifampicin, reference compound]	0.05	0.061	0.061	–	–	–	0.05	MIC [5]: 0.1 µg/mL (≈ 0.122 µM); MIC [6]: 0.1 µg/mL (≈ 0.122 µM); GIC50 RAW264.7 [11]: 700^a mg/L
NNC(=O)c1ccncc1 [Isoniazid, reference compound]	0.1	0.73	0.73	–	–	> 1000	0.1	Mtb-MurE inhibitory effect ([4]; negative control, any of the concentrations examined): no inhibitory effect; GIC50 RAW264.7 [11]: 3000^a mg/L
N[C@@H]1CON=C1O [D-cycloserine, reference compound]	25	–	–	–	–	–	–	cell length [10]: 4.2 ± 1.0 μm
NC[C@H]1O[C@H](O[C@H]2[C@H](O)[C@@H](O[C@H]3O[C@H](CO)[C@@H](O)[C@H](N)[C@H]3O)[C@H](N)C[C@@H]2N)[C@H](O)[C@@H](O)[C@@H]1O [Kanamycin, reference compound]	–	–	–	–	–	–	–	MIC R. equi RHA1 ([7]; LB): 1 µg/mL (≈ 2.06 µM); MIC E. coli K12 ([8]; LB): 1 µg/mL (≈ 2.06 µM); MIC P. putida [9]: 10 µg/mL (≈ 20.6 µM)
COc1cc2c(c(O)c1OC)C[C@H]1c3c(cc4c(c3-2)OCO4)CCN1C [(S)-Leucoxine (1), (S)-Leucoxine]	25	70	84	352	125	820	30	–
Oc1cc2c(c(O)c1O)C(c1cccc3c1OCO3)NCC2 (stereo not shown) [Compound 33]	> 100	> 332	–	18	5.5	148	–	–
Oc1cc2c(cc1O)C(Cc1ccc3c(c1)OCO3)NCC2 (stereo not shown) [Compound 20]	> 60	334	–	602	190	237	–	MIC M. bovis BCG [1]: 100 µg/mL (≈ 334 µM); MIC M. aurum [5]: >100 µg/mL; MIC [5]: > 100 µg/mL; MIC M. smegmatis mc^2155 [6]: >100 µg/mL; MIC [6]: > 100 µg/mL; MIC [7]: > 100 µg/mL; MIC [8]: > 100 µg/mL; MIC [9]: > 100 µg/mL
O=c1cc(-c2ccccc2)oc2c1ccc1ccccc12 [α-naphthoflavone, reference compound]	–	–	–	–	–	–	–	inhibition [12]: 100%; inhibition [13]: 101%; inhibition [14]: 100%; inhibition [15]: 99.1%; inhibition [16]: 101%
Oc1cc2c(cc1O)C(c1cccc3c1OCO3)NCC2 (stereo not shown) [Compound 29]	> 100	> 351	–	263	75	471	–	–
Oc1ccc2c(c1)CCNC2c1cccc2c1OCO2 (stereo not shown) [Compound 34]	> 100	> 371	–	672	181	> 1000	–	–
COc1ccc(Br)c2c1C(Cc1ccc3c(c1)OCO3)NCC2 (stereo not shown) [Compound 37]	30	53	106	80	30	165	–	MIC M. bovis BCG [1]: 20 µg/mL (≈ 53.2 µM); MIC [2, 19]: 40 µg/mL
COc1ccc(I)c2c1C(Cc1ccc3c(c1)OCO3)NCC2 (stereo not shown) [Compound 38]	50	118	71	66	28	< 111	30	–
Oc1cccc(C2NCCc3cc(O)c(O)cc32)c1 (stereo not shown) [Compound 7]	> 100	> 389	–	342	88	–	–	–
Oc1cc2c(cc1O)C(C1CCCCC1)NCC2 (stereo not shown) [Compound 23]	> 100	> 404	> 404	182	45	–	> 100	–
Oc1ccc(CC2NCCc3cc(O)c(O)cc32)cc1 (stereo not shown) [Norcoclaurine (2), Norcoclaurine]	> 100	> 369	–	1570	425	837	–	–
